We go through 4 molecules from paper PMC2933276 (Nature structural & molecular biology, 2010).

For experiment [1], the target named is T1, S. pombe Dcp2 regulatory domain (residues 1-94) (Schizosaccharomyces pombe, UniProt O13828).
T1 sequence (O13828 1-94): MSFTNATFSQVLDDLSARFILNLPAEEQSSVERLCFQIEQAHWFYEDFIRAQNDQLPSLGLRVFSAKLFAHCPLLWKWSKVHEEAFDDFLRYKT
The experiment in a line: […]-HSQC NMR titration. The experiment is classed as binding.

In experiment [2] the target is T2, S. pombe Dcp2 catalytic domain (residues 95-243) (Schizosaccharomyces pombe, UniProt O13828).
T2 sequence (O13828 95-243): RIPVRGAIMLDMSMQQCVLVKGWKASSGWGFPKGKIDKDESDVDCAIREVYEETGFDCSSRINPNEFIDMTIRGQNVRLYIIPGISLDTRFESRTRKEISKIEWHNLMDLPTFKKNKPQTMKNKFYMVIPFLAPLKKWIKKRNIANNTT
Briefly: […]-HSQC NMR titration. It counts as binding.

Experiment [3] concerns the target T3, S. pombe Dcp1-Dcp2 complex (Dcp2 1-243, Dcp1 1-127; D1D2) (Schizosaccharomyces pombe, UniProt O13828).
T3 sequence (O13828 1-243): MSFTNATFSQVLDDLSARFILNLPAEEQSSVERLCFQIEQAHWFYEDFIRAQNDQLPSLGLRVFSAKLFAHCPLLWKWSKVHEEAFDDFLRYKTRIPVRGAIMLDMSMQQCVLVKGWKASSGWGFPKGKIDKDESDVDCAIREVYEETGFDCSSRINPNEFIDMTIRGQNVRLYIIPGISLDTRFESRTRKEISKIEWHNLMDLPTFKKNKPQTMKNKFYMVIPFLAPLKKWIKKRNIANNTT
T3 sequence (Q9P805 1-127 partner): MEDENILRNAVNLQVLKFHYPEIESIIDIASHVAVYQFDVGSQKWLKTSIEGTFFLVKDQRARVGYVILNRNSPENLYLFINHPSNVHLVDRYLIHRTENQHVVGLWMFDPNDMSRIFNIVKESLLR
Briefly: SAXS, ligand-induced compaction. It counts as binding. The note with it: 10 mM m7GpppA; pH 7.0, 150 mM NaCl, 50 mM HEPES, 2 mM DTT.

Experiment [4] has as its target T4, S. pombe Dcp2 (spDcp2) 1–243 (S. pombe, UniProt O13828 1-243).
T4 sequence: T3 sequence (O13828 1-243)
Briefly: SEC. On the technique in general: SEC sorts molecules by how far they enter the pores of the column.

Experiment [5] deals with S. pombe Dcp2 1–243 W43A (S. pombe, UniProt O13828 1-243, W43A). The experiment in a line: SEC.
The target in experiment [6] is S. pombe Dcp2 1–243 R167Q (S. pombe, UniProt O13828 1-243, R167Q). The experiment in a line: SEC.

`Nc1nc2c(ncn2[C@@H]2O[C@H](COP(=O)(O)OP(=O)(O)O)[C@@H](O)[C@H]2O)c(=O)[nH]1` [GDP]: the Kd (usually the equilibrium constant for the complex coming apart) in experiment [1] is approximately 40 mM.

With `C[n+]1cn([C@@H]2O[C@H](COP(=O)(O)OP(=O)(O)O)[C@@H](O)[C@H]2O)c2nc(N)[nH]c(=O)c21` [m^7GDP], the Kd in experiment [1] is approximately 12 mM; in experiment [2], 12 mM.

Turning to `C[n+]1cn([C@@H]2O[C@H](COP(=O)(O)OP(=O)(O)OP(=O)(O)OC[C@H]3O[C@@H](n4cnc5c(N)ncnc54)[C@H](O)[C@@H]3O)[C@@H](O)[C@H]2O)c2nc(N)[nH]c(=O)c21` [m^7GpppA], the “SAXS, ligand-induced compaction” value in experiment [3] is “reveals a compaction in the presence of cap-analog m^7GpppA that is small but reproducible”.

B1: S. pombe Dcp1 1–127 (natural protein)
chain: T3 sequence (Q9P805 1-127 partner)
In the case of B1, the binding result in experiment [4], in experiment [5] and in experiment [6] was “binds” each time.
